Results as given in patent US20070021509A1, “Phosphate transport inhibitors” (priority 2001, published 2007).
pIC50: −log10 of the molar value.

Test system: phosphate uptake by rabbit intestinal Brush Border Membrane Vesicles (BBMV)
Assay: 33PO4 uptake in rabbit intestinal BBMV (HTS), phosphate transporter inhibition in vitro
Format: biochemical
Settings: Table 2, phosphate uptake, read-out: IC50
Protocol: The following example outlines the procedures required for in vitro measurement of the inhibition of phosphate uptake by rabbit intestinal Brush Border Membrane Vesicles (BBMV).
Rabbit Intestinal Brush Border Membrane Vesicles (BBMV) were isolated from mucosal scrapings of the upper small intestine (duodenum) of male New Zealand White rabbits. The scrapings were divided into 2 g aliquots in cryopreservation vials, frozen in liquid nitrogen, and stored at −80° C.
The following procedure was performed for each 2 g sample of BBMV mucosal scraping. Buffer volumes and container sizes were adjusted appropriately for the number of 2 g samples used. The entire preparation was performed on ice, unless otherwise stated.
Mucosal scrapings (2 g per tube) were thawed in a 37° C. water bath for 3 minutes and then placed on ice. The scrapings were suspended with a total of 7.5 ml of 300 MET, and transferred to a 250 mL Corning tube on ice. To the suspension was added 30 mL cold (4° C.) deionized water (dH20). The suspension was homogenized with a tissue homogenizer (Polytron) on high speed for 2 minutes. A stir bar and MgCl2 (81.3 mg) was added. The suspension was mixed well by inverting the closed tube. The suspension was stirred on ice, ensuring that a good vortex is achieved with the stir bar, for 40 minutes. The suspension was transferred to a chilled centrifuge tube and spun at 4000×g for 15 minutes. The supernatant was transferred to a new chilled centrifuge tube and spun at 32000×g for 30 minutes. The supernatant was discarded and the pellet was re-suspended with 34 mL cold 60 MET. The suspension was homogenized with a Dounce homogenizer with 8 strokes. The suspension was transferred to a fresh 250 mL Corning tube. A stir bar and 69.1 mg MgCl2 were added. The suspension was stirred well on ice for 10 minutes. The suspension was transferred to a chilled centrifuge tube and spun at 4000×g for 15 minutes. The supernatant was transferred to a new chilled centrifuge tube and spun at 32000×g for 30 minutes. The supernatant was discarded. At this stage, the preparation could be continued or this pellet (P4) could be frozen in liquid nitrogen and stored at −80° C. When needed, this pellet could be allowed to thaw at room temperature for 5 minutes. Continuing the preparation, the pellet was re-suspended with 34 mL cold 280 MH. The suspension was homogenized in a Dounce homogenize with 8 strokes. The suspension was transferred to a new chilled centrifuge tube and spun at 32000×g for 30 minutes. The supernatant was discarded. To the pellet was added 500 μL 280 MH and the pellet was re-suspended very carefully with a 1 mL tuberculin syringe with a 25-gauge needle with care not to create bubbles. Once the entire pellet was suspended, the suspension was transferred to a chilled 1.5 mL microfuge tube. The suspension was evenly dispersed by bringing the suspension up into the syringe through the 25-gauge needle, and back out again 8 times with care not to create bubbles. The total protein concentration was determined by performing a Bradford Protein Assay. Using that value, the BBMV were diluted with 280 MH to reach approximately 0.5-2.0 mg/mL. The solution was used as soon as possible for uptake studies.
The following experiment was performed using a Beckman Multimek 96-tip robotic pipettor. The following outlines the preparation required to screen one 96-well plate of compounds. However, multiple plates could be screened in one experiment.
To the “Uptake Buffers” was added ^33PO4 to reach 200,000 CPM/19 μL. The buffer solutions were stored at room temperature. The following control solutions were prepared and placed into appropriate wells of a polypropylene, 96-well V-bottom plate (“Hot Stock Plate”):
a. Maximum activity (MAX)−Na Uptake buffer+^33PO4 at 200,000 CPM/19 μL
b. Midline activity (MID)−MAX+100 μM KH2PO4, pH 7.4
c. Minimum activity (MIN)− K Uptake buffer+^33PO4 at 200,000 CPM/19 μL

pIC50	Structure (SMILES)
3.30 to 4.00	O=C(Nc1cccc(Br)c1)c1cc(Br)ccc1NS(=O)(=O)c1ccc(OC(F)(F)F)cc1 [Compound 72]
3.30 to 4.00	O=C(Nc1ccc(-c2ccccc2)cc1)c1cc(Br)ccc1NS(=O)(=O)c1ccc(OC(F)(F)F)cc1 [Compound 73]
3.30 to 4.00	O=C(Nc1ccc(Oc2ccccc2)cc1)c1cc(Br)ccc1NS(=O)(=O)c1ccc(OC(F)(F)F)cc1 [Compound 74]
3.30 to 4.00	O=C(NC1CCCCC1)c1cc(Br)ccc1NS(=O)(=O)c1ccc(OC(F)(F)F)cc1 [Compound 75]
3.30 to 4.00	O=C(NC1CCCc2ccccc21)c1cc(Br)ccc1NS(=O)(=O)c1ccc(OC(F)(F)F)cc1 (stereo not drawn) [Compound 76]
3.30 to 4.00	COc1ccc(CNC(=O)c2cc(Br)ccc2NS(=O)(=O)c2ccc(OC(F)(F)F)cc2)cc1 [Compound 77]
3.30 to 4.00	O=C(Nc1cccc(Cl)c1)c1cc(Br)ccc1NS(=O)(=O)c1ccc(OC(F)(F)F)cc1 [Compound 78]
3.30 to 4.00	O=C(Nc1ccc(Cl)cc1Cl)c1cc(Br)ccc1NS(=O)(=O)c1ccc(OC(F)(F)F)cc1 [Compound 79]
3.00 to 3.30	O=C(Nc1cc(Cl)ccc1Cl)c1cc(Br)ccc1NS(=O)(=O)c1ccc(OC(F)(F)F)cc1 [Compound 80]
3.00 to 3.30	CCCCCCCCCCc1ccc(NC(=O)c2cc(Br)ccc2NS(=O)(=O)c2ccc(OC(F)(F)F)cc2)cc1 [Compound 81]
3.00 to 3.30	Cc1ccc(CNC(=O)c2cc(Br)ccc2NS(=O)(=O)c2ccc(OC(F)(F)F)cc2)cc1 [Compound 82]
3.00 to 3.30	Cc1c(Cl)cccc1NC(=O)c1cc(Br)ccc1NS(=O)(=O)c1ccc(OC(F)(F)F)cc1 [Compound 83]
2.82 to 3.00	Cc1cc(Br)ccc1NC(=O)c1cc(Br)ccc1NS(=O)(=O)c1ccc(OC(F)(F)F)cc1 [Compound 84]
4.00 to 4.29	O=C(Nc1ccc(Cl)cc1Cl)c1cc(Br)ccc1NS(=O)(=O)c1ccc(Cl)cc1 [Compound 85]
4.00 to 4.29	O=C(Nc1ccccc1Cl)c1cc(Br)ccc1NS(=O)(=O)c1ccc(Cl)cc1 [Compound 86]
4.00 to 4.29	O=C(Nc1cc(Cl)ccc1Cl)c1cc(Br)ccc1NS(=O)(=O)c1ccc(Cl)cc1 [Compound 87]
3.30 to 4.00	O=C(Nc1ccccc1F)c1cc(Br)ccc1NS(=O)(=O)c1ccc(Cl)cc1 [Compound 88]
3.30 to 4.00	COc1ccccc1NC(=O)c1cc(Br)ccc1NS(=O)(=O)c1ccc(Cl)cc1 [Compound 89]
3.30 to 4.00	O=C(Nc1ccccc1Br)c1cc(Br)ccc1NS(=O)(=O)c1ccc(Cl)cc1 [Compound 90]
< 2.82	O=C(Nc1cccc(Br)c1)c1cc(Br)ccc1NS(=O)(=O)c1ccc(Cl)cc1 [Compound 91]
< 2.82	Cc1c(Cl)cccc1NC(=O)c1cc(Br)ccc1NS(=O)(=O)c1ccc(Cl)cc1 [Compound 93]
< 2.82	Cc1ccccc1NC(=O)c1cc(Br)ccc1NS(=O)(=O)c1ccc(Cl)cc1 [Compound 94]
< 2.82	O=C(Nc1cccc(Cl)c1)c1cc(Br)ccc1NS(=O)(=O)c1ccc(Cl)cc1 [Compound 95]
< 2.82	O=C(c1ccc(Cl)cc1)c1cc(NC(=O)c2cc(Br)ccc2NS(=O)(=O)c2ccc(Cl)cc2)ccc1Cl [Compound 96]
< 2.82	O=C(Nc1ccc(Cl)cc1)c1cc(Br)ccc1NS(=O)(=O)c1ccc(Cl)cc1 [Compound 97]
4.00 to 4.29	COc1ccc(S(=O)(=O)Nc2ccc(Br)cc2C(=O)Nc2cc(Cl)ccc2Cl)cc1[N+](=O)[O-] [Compound 98]
4.00 to 4.29	COc1ccc(S(=O)(=O)Nc2ccc(Br)cc2C(=O)Nc2ccccc2Cl)cc1[N+](=O)[O-] [Compound 99]
4.00 to 4.29	COc1ccc(S(=O)(=O)Nc2ccc(Br)cc2C(=O)Nc2cccc(Cl)c2C)cc1[N+](=O)[O-] [Compound 100]
4.00 to 4.29	COc1ccc(S(=O)(=O)Nc2ccc(Br)cc2C(=O)Nc2cccc(Cl)c2)cc1[N+](=O)[O-] [Compound 101]
4.00 to 4.29	COc1ccc(S(=O)(=O)Nc2ccc(Br)cc2C(=O)Nc2ccccc2F)cc1[N+](=O)[O-] [Compound 102]
